Results on five molecules are retold here after ChEMBL document CHEMBL1151074, “RATIONAL DESIGN, SYNTHESIS, AND SERINE PROTEASE INHIBITORY ACTIVITY OF NOVEL P1-ARGININOYL HETEROCYCLES” (Bioorg Med Chem Lett, 1997).

The structures appear in SMILES notation.

Assay [1] addresses Serine protease 1 (Homo sapiens, UniProt P07477). The experiment in a line: Inhibitory concentration against trypsin.
For assay [2], the target named is Prothrombin (Homo sapiens, UniProt P00734). The assay can be described thus: Inhibitory concentration against thrombin(FIIa).
Assay [3] is described as follows: Inhibitory concentration against factor Xa(FXa).
The target of assay [4] is Plasminogen (Rattus norvegicus, UniProt Q01177). The assay can be described thus: Inhibitory concentration against plasmin.
Plasminogen, sequence (Q01177 97-581 limits assumed): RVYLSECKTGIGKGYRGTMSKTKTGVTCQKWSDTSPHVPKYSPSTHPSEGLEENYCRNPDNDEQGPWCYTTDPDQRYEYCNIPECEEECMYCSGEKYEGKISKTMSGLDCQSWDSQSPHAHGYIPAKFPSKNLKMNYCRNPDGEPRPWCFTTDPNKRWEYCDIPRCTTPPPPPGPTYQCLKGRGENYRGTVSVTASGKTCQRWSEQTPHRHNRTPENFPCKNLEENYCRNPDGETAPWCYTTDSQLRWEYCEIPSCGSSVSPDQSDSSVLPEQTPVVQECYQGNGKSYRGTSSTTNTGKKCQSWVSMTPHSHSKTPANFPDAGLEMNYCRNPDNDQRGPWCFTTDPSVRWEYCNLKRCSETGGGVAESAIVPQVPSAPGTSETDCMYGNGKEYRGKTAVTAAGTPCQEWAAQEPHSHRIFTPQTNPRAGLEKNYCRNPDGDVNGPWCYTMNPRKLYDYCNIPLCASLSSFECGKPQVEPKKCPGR
Plasminogen, sequence (Q01177 582-812 limits assumed): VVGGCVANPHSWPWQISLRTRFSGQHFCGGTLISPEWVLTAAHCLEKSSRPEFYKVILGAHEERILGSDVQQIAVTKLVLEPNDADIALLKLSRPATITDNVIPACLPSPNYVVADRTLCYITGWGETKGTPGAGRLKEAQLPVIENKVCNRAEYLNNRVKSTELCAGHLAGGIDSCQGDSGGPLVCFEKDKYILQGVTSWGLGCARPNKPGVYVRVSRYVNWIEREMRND

Serine protease 1, sequence (P07477 whole entry): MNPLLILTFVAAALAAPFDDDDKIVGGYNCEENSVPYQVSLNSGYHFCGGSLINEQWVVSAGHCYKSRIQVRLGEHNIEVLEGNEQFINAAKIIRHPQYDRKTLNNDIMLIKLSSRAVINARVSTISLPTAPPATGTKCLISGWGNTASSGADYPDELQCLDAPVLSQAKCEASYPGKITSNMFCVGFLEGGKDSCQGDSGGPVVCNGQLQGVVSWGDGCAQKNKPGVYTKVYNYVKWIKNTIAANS

Usually IC50 stands for the concentration at which inhibition is half-maximal. A high value points to lower potency. For `CC(C)(C)CC(=O)N[C@H](Cc1ccccc1)C(=O)N1CCC[C@H]1C(=O)N[C@@H](CCCN=C(N)N)C(=O)c1nc2ccccc2[nH]1`, the IC50 in assay [1] was 1010 nM; in assay [2], 92.1 nM; in assay [3] it was more than 2500 nM; in assay [4], more than 2500 nM.

Consider `CC(=O)N[C@H](Cc1ccccc1)C(=O)N1CCC[C@H]1C(=O)N[C@H]1CCCN(C(=N)N)C1O` (some centres undefined), for which the IC50 was 156 nM in assay [1], 284 nM in assay [2], more than 2500 nM in assay [3] and more than 2500 nM in assay [4].

On to `CC(C)(C)CC(=O)N[C@H](Cc1ccccc1)C(=O)N1CCC[C@H]1C(=O)N[C@@H](CCCNC(=N)N)C(=O)c1nc2ccccc2o1`, for which the IC50 in assay [1] amounted to 2.3 nM; in assay [2], 68 nM; in assay [3] it was 110 nM; in assay [4] it was 1320 nM.

On to `CC(=O)N[C@H](Cc1ccccc1)C(=O)N[C@@H](Cc1cccc2ccccc12)C(=O)N[C@H]1CCCN(C(=N)N)C1O` (some centres undefined), for which the IC50 is 25 nM in assay [1], more than 2500 nM in assay [2] and less than 25 nM in assay [4].

Turning to `CC(=O)N[C@H](Cc1ccccc1)C(=O)N[C@@H](Cc1cccc2ccccc12)C(=O)N[C@@H](CCCN=C(N)N)C(=O)c1nc2ccccc2o1`, the IC50 in assay [1] was 6.4 nM; in assay [2], more than 2500 nM; in assay [3], 29 nM; in assay [4], 14.2 nM.
